Measured values from US20220289732A1, “HETEROCYCLIC WDR5 INHIBITORS AS ANTI-CANCER COMPOUNDS” (NOVARTIS AG, priority 2019, published 2022).
Like-named read-outs stand apart in the source and are kept apart here.

Legend:
[1] = molecular target: wild type MLL1 four-member complex (MLL1-4C) (Homo sapiens, UniProt P61964); experiment: MLL1 LC-MS assay (SAH production); format: biochemical; conditions: read-out: (b) MLL LCMS Peptide Val.v.1 Qualified AC50
Procedure: The compounds of the present disclosure were serially and separately diluted 3-fold in DMSO to obtain a total of eight or twelve concentrations. Then the test compounds at each concentration (120 nL of each) were transferred by Mosquito into white Proxiplate plus 384-well microplate (PerkinElmer). Solutions (6 μL) of 60 nM wild type MLL1 four-member complex (MLL1-4C) and 5 μM SAM in the reaction buffer (20 mM Tris-HCl, pH8.0, 0.01% Tween 20, 1 mM DTT, 10 mM MgCl2, 0.01% BSA) were added to the wells that were then incubated with the test compound for 20 min. A 6 μL solution of 20 μM of the peptide substrate H3K4me0 (histone H3[1-21]-Biotin) in the reaction buffer was added to initiate each reaction. The final components in the reaction solution include 30 nM MLL1-4C, 2.5 μM SAM, and 10 μM H3K4me0 with varying concentration of the compounds. A positive control consisted of 30 nM MLL1-4C, 2.5 μM SAM, and 10 μM substrate in the absence of the test compound, and a negative control consisted of 2.5 μM SAM, and 10 μM substrate only. Each reaction was incubated at rt for 120 min, then stopped by addition of 3 μL per of quench solution (2.5% TFA with 320 nM d4-SAH). The reaction mixture was centrifuged (Eppendorf centrifuge 5810, Rotor A-4-62) for 2 min at 2000 rmp. The SAH production from the enzymatic assays were monitored by LC-MS/MS on an API 4000 triple quadrupole mass spec with Turbolon Spray (Applied Biosystem) coupled with Prominenece UFLC (Shimazu). The level of SAH production were then normalized based on the values coming from the positive and negative controls to give percent enzyme activities. The data were then fit to a dose response equation using the program Helios (Novartis) to get the IC50 values of the test compound. Helios is a Novartis in-house assay data analysis software using the methods described by Normolle, D. P., Statistics in Medicine, 12:2025-2042 (1993); Formenko, I. et al., Computer Methods and programs in Biomedicine, 82, 31-37 (2006); Sebaugh, J. L., Pharmaceutical Statistics, 10:128-134 (2011); Kelly, C. et al., Biometrics, 46(4):1071-1085 (1990); and Kahm, M, et al., Journal of Statistical Software, 33(7):(2010) (grofit: Fitting Biological Growth Curves with R, pages 1-21, available at http://www.jstatsoft.org/).

[2] = molecular target: WDR5 (Homo sapiens, UniProt P61964); experiment: WDR5 HTRF binding assay; conditions: read-out: (a) WDR5 HTRF Pep Val v.1[Inhibitor/IC50]Qualified AC50
Procedure: The compounds were serially diluted 3-fold in DMSO to obtain a total of twelve concentrations. Then the test compounds at each concentration (90 nL of each) were transferred by Mosquito in the white Proxiplate plus 384-well microplate (Perkin Elmer). The assay mixture (typical 9 μL) containing 6 nM WDR5 and 20 nM Biotin-MLL1 WIN peptide (3762-3773) in the assay buffer (25 mM Hepes, pH7.5, 0.05% Tween 20, 2 mM DTT, 100 mM NaCl, 0.1% BSA) were added to the wells. For counter assay, a 9 μL solution of 15 nM Biotin-PEG-His peptide was added into the wells. After 20 min incubation at rt, a 3 μL detection solution containing 14 μg/ml Phycolink Streptavidin Allophycocyanin (Prozyme), 2 nM Anti-His-Eu (PerkinElmer) in assay buffer was then added. After 1 hr incubation, the plate was read in the EnVision reader (PerkinElmer) using the HTRF protocol (The protocol set-up: Lance/Delfia dual enhancer mirror, excitation at 320 UV2 (TRF), emission at APC665, 2nd emission at EuropiμM 615). HTRF signals were normalized based on the reading coming from the positive (maximum signal control) and negative controls (minimum signal control) to give percentage of activities left. The data were then fit to a dose response equation using the program Helios (Novartis) to get the IC50 values. Helios is a Novartis in-house assay data analysis software using the methods described by Normolle, D. P., Statistics in Medicine, 12:2025-2042 (1993); Formenko, I. et al., Computer Methods and programs in Biomedicine, 82, 31-37 (2006); Sebaugh, J. L., Pharmaceutical Statistics, 10:128-134 (2011); Kelly, C. et al., Biometrics, 46(4):1071-1085 (1990); and Kahm, M, et al., Journal of Statistical Software, 33(7):(2010) (grofit: Fitting Biological Growth Curves with R, pages 1-21, available at http://www.jstatsoft.org/).

[3] = tested on: MV4-11 cells; experiment: MV4-11 6-day cell growth CTG (CellTiter-Glo) assay; format: cell-based; conditions: 6 days, read-out: (c) MLL/WDR5 cell proliferation assay//MLL/WDR5 proliferation MV4:11 Qualified AC50
Procedure: MV4-11 6-Day Cell Growth CTG (CellTiter-Glo) Assay
Acute myeloid leukemia cell MV4-11 (ATCC® CRL-9591™) was cultured with RPMI 1640 medium (Thermo Fisher Scientific, cat #11875) supplemented with 10% FBS (Thermo Fisher Scientific, cat #10099141) in humidified incubator at 37° C., 5% CO2. To assess the effect of WDR5 inhibitor on cell growth, the compound of the present invention was dissolved in DMSO and serially diluted at 1:3 for 12 points starting from 10 mM then 200 nL for the replicate of each dose per well was dispensed to Viewplate-384 Black (Perkin Elmer). Exponentially growing MV4-11 cells were seeded at the density of 300 cells per well in 40 μL to the plate, so the final compound working concentration starts from 50 μM. After 6 days, 40 μL CellTiter-Glo (Promega, cat #G7573) was added into the cell culture well and luminescence was read with Envision (Perkin Elmer) to determine the viable cells. The percentage inhibition was calculated against the samples treated with DMSO only and the data were used for dose response curve fitting in GraphPad Prism to get the IC50 of representative compound of present invention, which reflects the inhibition of WDR5 activity in the proliferation of MV4;11.

SMILES: CCOc1cc(C(C)N2CCc3c(cc(Cn4ccnc4C)cc3-c3cn(C)nc3C)C2=O)ncc1C#N (racemic) [Example 261, 6-(1-(5-(1,3-dimethyl-1H-pyrazol-4-yl)-7-((2-methyl-1H-imidazol-1-yl)methyl)-1-oxo-3,4-dihydroisoquinolin-2(1H)-yl)ethyl)-4-ethoxynicotinonitrile]
- AC50 [1]: 10 to 1000 nM
- IC50 [2]: < 10 nM
- AC50 ([3]; Homo sapiens, MV4-11, 144 h): 10 to 1000 nM

SMILES: CCOc1cc(C(C)N2CCc3c(cc(Cn4ccnc4C)cc3-c3cn(C)nc3C)C2=O)ncc1C#N (racemic) [Example 262, 6-(1-(5-(1,3-dimethyl-1H-pyrazol-4-yl)-7-((2-methyl-1H-imidazol-1-yl)methyl)-1-oxo-3,4-dihydroisoquinolin-2(1H)-yl)ethyl)-4-ethoxynicotinonitrile]
- AC50 [1]: 10 to 1000 nM
- IC50 [2]: < 10 nM
- AC50 [3]: < 10 nM

SMILES: CCOc1cc([C@H](C)N2CCc3c(Cl)cc(Cn4ccnc4NC)cc3C2=O)ncc1C#N (single isomer, unassigned) [Example 3]
- AC50 [1]: 10 to 1000 nM
- IC50 [2]: < 10 nM
- AC50 ([3]; Homo sapiens, MV4-11, 144 h): 10 to 1000 nM

SMILES: CNc1nccn1Cc1cc(CN2CCOCC2)c2c(c1)C(=O)N([C@@H](C)c1cc(OC)c(F)cn1)CC2 (single isomer, unassigned) [Example 7]
- AC50 [1]: 10 to 1000 nM
- IC50 [2]: < 10 nM
- AC50 ([3]; Homo sapiens, MV4-11, 144 h): 10 to 1000 nM

SMILES: CCOc1cc([C@H](C)N2CCc3c(CN(C)C)cc(Cn4ccnc4NC)cc3C2=O)ncc1F (single isomer, unassigned) [Example 19]
- AC50 [1]: 10 to 1000 nM
- IC50 [2]: 10 to 1000 nM
- AC50 ([3]; Homo sapiens, MV4-11, 144 h): 10 to 1000 nM

SMILES: CNc1nccn1Cc1cc(CN2CC(O)C2)c2c(c1)C(=O)N([C@@H](C)c1cc(OC)c(F)cn1)CC2 (single isomer, unassigned) [Example 51]
- AC50 [1]: 10 to 1000 nM
- IC50 [2]: < 10 nM
- AC50 ([3]; Homo sapiens, MV4-11, 144 h): 10 to 1000 nM

SMILES: CNc1nccn1Cc1cc2c(c(-c3cc([C@@H](C)O)cnc3Cl)c1)CCN(Cc1ccc(F)c(OC)c1)C2=O (single isomer, unassigned) [Example 75]
- AC50 [1]: 10 to 1000 nM
- IC50 [2]: < 10 nM
- AC50 ([3]; Homo sapiens, MV4-11, 144 h): 10 to 1000 nM

SMILES: CNc1nccn1Cc1cc2c(c(-c3cc([C@H](C)O)cnc3Cl)c1)CCN(Cc1ccc(F)c(OC)c1)C2=O (single isomer, unassigned) [Example 76]
- AC50 [1]: 10 to 1000 nM
- IC50 [2]: < 10 nM
- AC50 ([3]; Homo sapiens, MV4-11, 144 h): 10 to 1000 nM

SMILES: CNc1nccn1Cc1cc2c(c(C3CC3)c1)CCN([C@@H](C)c1cnc(F)c(OC)c1)C2=O (single isomer, unassigned) [Example 78]
- AC50 [1]: 10 to 1000 nM
- IC50 [2]: < 10 nM
- AC50 ([3]; Homo sapiens, MV4-11, 144 h): 10 to 1000 nM

SMILES: CCOc1cc([C@H](C)N2CCc3c(cc(Cn4ccnc4NC)cc3N3CCCC3)C2=O)ncc1F (single isomer, unassigned) [Example 88]
- AC50 [1]: 10 to 1000 nM
- IC50 [2]: < 10 nM
- AC50 ([3]; Homo sapiens, MV4-11, 144 h): 10 to 1000 nM

SMILES: CNc1nccn1Cc1cc2c(c(N3CC(OC)C3)c1)CCN([C@@H](C)c1cc(OC)c(F)cn1)C2=O (single isomer, unassigned) [Example 90]
- AC50 [1]: 10 to 1000 nM
- IC50 [2]: 10 to 1000 nM
- AC50 ([3]; Homo sapiens, MV4-11, 144 h): 10 to 1000 nM

SMILES: CNc1nccn1Cc1ccc2c(c1)C(=O)N([C@@H](C)c1cnc(F)c(OC)c1)CC2 (single isomer, unassigned) [Example 94]
- AC50 [1]: 10 to 1000 nM
- IC50 [2]: 10 to 1000 nM
- AC50 ([3]; Homo sapiens, MV4-11, 144 h): 10 to 1000 nM

SMILES: CCOc1cc([C@H](C)N2CCc3c(cc(Cn4ccnc4C)cc3-c3nc(C)nn3C)C2=O)ncc1C#N (single isomer, unassigned) [Example 264]
- AC50 [1]: 10 to 1000 nM
- IC50 [2]: < 10 nM
- AC50 ([3]; Homo sapiens, MV4-11, 144 h): 10 to 1000 nM

SMILES: CCOc1cc([C@H](C)N2CCc3c(cc(Cn4ccnc4C)cc3-n3nc(C)nc3C)C2=O)ncc1C#N (single isomer, unassigned) [Example 265]
- AC50 [1]: 10 to 1000 nM
- IC50 [2]: < 10 nM
- AC50 ([3]; Homo sapiens, MV4-11, 144 h): 10 to 1000 nM

SMILES: CCOc1cc([C@H](C)N2CCc3c(cc(Cn4ccnc4C)cc3[C@@H]3CCCN3C)C2=O)ncc1C#N (single isomer, unassigned) [Example 266]
- AC50 [1]: 1000 to 25000 nM
- IC50 [2]: 1000 to 25000 nM
- AC50 ([3]; Homo sapiens, MV4-11, 144 h): 1000 to 25000 nM

SMILES: CCOc1cc([C@H](C)N2CCc3c(cc(Cn4ccnc4C)cc3[C@H]3CCCN3C)C2=O)ncc1C#N (single isomer, unassigned) [Example 267]
- AC50 [1]: 10 to 1000 nM
- IC50 [2]: < 10 nM
- AC50 ([3]; Homo sapiens, MV4-11, 144 h): 10 to 1000 nM

SMILES: CNc1nccn1Cc1ccc2cnn(C(C)c3cnc(F)c(OC)c3)c(=O)c2c1 (stereo not shown) [Example 109, 2-(1-(6-fluoro-5-methoxypyridin-3-yl)ethyl)-7-((2-(methylamino)-1H-imidazol-1-yl)methyl)phthalazin-1(2H)-one]
- AC50 [1]: 10 to 1000 nM
- IC50 [2]: 10 to 1000 nM

SMILES: CNc1nccn1Cc1ccc2ncn(C(C)c3cnc(F)c(OC)c3)c(=O)c2c1 (stereo not shown) [Example 110, 3-(1-(6-fluoro-5-methoxypyridin-3-yl)ethyl)-6-((2-(methylamino)-1H-imidazol-1-yl)methyl)quinazolin-4(3H)-one]
- AC50 [1]: 10 to 1000 nM
- IC50 [2]: 10 to 1000 nM

SMILES: CCOc1cc(C(C)N2CCc3c(cc(CCN(C)CC)cc3C3=CCNCC3)C2=O)ncc1C#N (stereo not shown) [Example 159, 4-ethoxy-6-(1-(7-(2-(ethyl(methyl)amino)ethyl)-1-oxo-5-(1,2,3,6-tetrahydropyridin-4-yl)-3,4-dihydroisoquinolin-2(1H)-yl)ethyl)nicotinonitrile]
- AC50 [1]: 1000 to 25000 nM
- IC50 [2]: 10 to 1000 nM

SMILES: CCOc1cc(C(C)N2CCc3c(cc(CCN(C)CC)cc3-n3cccn3)C2=O)ncc1C#N (stereo not shown) [Example 209]
- AC50 [1]: 10 to 1000 nM
- IC50 [2]: 10 to 1000 nM

SMILES: CCOc1cc(CN2CCc3c(cc(Cn4ccnc4C)cc3-c3cc(C)nn3C)C2=O)ncc1C#N [Example 300]
- AC50 [1]: 10 to 1000 nM
- IC50 [2]: < 10 nM

SMILES: CCOc1cc(CN2CCc3c(cc(Cn4ccnc4C)cc3-c3cn(S(C)(=O)=O)nc3C)C2=O)ncc1C#N [Example 301]
- AC50 [1]: 10 to 1000 nM
- IC50 [2]: < 10 nM

SMILES: CCOc1cc([C@H](C)N2CCc3c(cc(Cn4ccnc4C)cc3-c3c[nH]nc3C)C2=O)ncc1C#N [Example 302]
- IC50 [2]: < 10 nM
